Test results as given in publication PMC8172577, “A Novel Antimicrobial Peptides From Pine Needles of Pinus densiflora Sieb. et Zucc. Against Foodborne Bacteria” (Frontiers in Microbiology, 2021).
≈ marks a conversion by molar mass, not a printed value. Where two headings read alike, the source gives them in different places. Where no end group is shown, it is not given here.

Experiments:
Assay type in all cases: cell-based
[1] = test system: Escherichia coli ATCC25922; details: minimal concentration of peptide to inhibit microbial growth; 5 × 10^5 CFU/ml, 18 h at 37°C, OD 600 nm
Experimental: (§1) For antimicrobial assays, Escherichia coli ATCC 25922, Pseudomonas aeruginosa ATCC 15692, Staphylococcus aureus ATCC 25923, and Staphylococcus epidermidis ATCC 12228 were obtained from the American Type Culture Collection (Manassas, VA, United States). Salmonella typhimurium KCTC 1926 and Listeria monocytogenes KCTC 3710 were obtained from the Korean Collection for Type Cultures (Jeollabuk-do, Korea).
(§2) Minimum inhibitory concentrations (MICs) of purified PN peptides were assayed according to the Clinical and Laboratory Standards Institute recommendations ([Wiegand et al., 2008]). Briefly, bacterial suspension (5 × 10^5 CFU/ml), obtained by diluting an exponential growth phase culture, was then added into the 96-well plates containing 2-fold serial dilutions of each fraction, the plates were incubated for 18 h at 37°C. MICs of PN peptides were measured in optical density at 600 nm using Versamax™ ELISA Microplate Reader (Molecular Devices, Sunnyvale, CA, United States). PBS, culture media, and melittin were used as growth and growth inhibition controls. The MIC was defined as the lowest concentration of PN peptide that was able to inhibit microbial growth.

[2] = test system: Listeria monocytogenes KCTC3710; details: minimal concentration of peptide to inhibit microbial growth; 5 × 10^5 CFU/ml, 18 h at 37°C, OD 600 nm
Experimental: as §1, §2

[3] = test system: Salmonella typhimurium KCTC1926; details: minimal concentration of peptide to inhibit microbial growth; 5 × 10^5 CFU/ml, 18 h at 37°C, OD 600 nm
Experimental: as §1, §2

[4] = test system: Staphylococcus aureus ATCC25923; details: for Increased in MIC (fold): compared to the soluble extract
Experimental: as §1, §2

[5] = test system: mouse red blood cells (mRBCs); assay: Hemolytic activity; details: 60 min at 37°C
Experimental: Hemolysis was determined using the mouse red blood cells (mRBCs). Fresh mRBCs were collected in PBS and washed three times with PBS (final mRBC concentration, 8% v/v). […] Hemolytic activity was monitored at an absorbance (A) of 414 nm and calculated as a positive control [0.1% Triton X-100 (Atriton)] and negative control [PBS (Ablank)]. The resulting values of cells that underwent hemolysis were calculated according to equation ([Park et al., 2008]):
(1) Hemolysis=[(Asample−Ablank)/(Atriton−Ablank)]×100%

[6] = test system: HaCaT (human keratinocytes) cells; assay: Cytotoxicity, MTT assay, HaCaT
Experimental: (§3) The cytotoxic effect of PN peptides was assessed against HaCaT (human keratinocytes) and RAW264.7 (mouse macrophages) cells cultured in 96-well plates at a density of 2 × 10^4 cells/well in Dulbecco’s modified Eagle medium (DMEM) containing 10% fetal bovine serum. MTT [3-(4,5-dimethylthiazol-2-yl)-2,5-diphenyltetrazolium bromide] assays were used to evaluate cytotoxicity. PN peptides (0–200 μg/ml) were added with the cells for 24 h at 37°C. Subsequently, MTT (0.5 mg/ml) was added to each well and incubated for 4 h at 37°C After incubation, formazan crystals produced was dissolved in dimethyl sulfoxide, and the absorbance at 570 nm was measured and cytotoxicity was determined as a percentage of 100% cytotoxic control (0.1% Triton X-100; [Park et al., 2008]). Melittin was used as the control (reference) peptide.

[7] = test system: RAW264.7 (mouse macrophages) cells; assay: Cytotoxicity, MTT assay, RAW264.7; details: 12.5 μg/ml, 24 h
Experimental: as §3

[8] = minimal concentration of peptide to inhibit microbial growth, 5 × 10^5 CFU/ml, 18 h at 37°C, OD 600 nm

Molecule	MIC [1]	MIC [2]	MIC [3]	MIC [4, 8]	hemolysis ([5]; 200 μg/ml, 8% v/v mRBCs in PBS, A414, vs 0.1% Triton X-100, n = 3)	cytotoxicity ([6]; 200 μg/ml, 24 h at 37°C, vs 0.1% Triton X-100, n = 3)	Increased in MIC (fold) ([4]; after First C18 RP-HPLC)	Increased in MIC (fold) ([4]; after Second C18 RP-HPLC)	MIC ([4]; fraction after First C18 RP-HPLC, S. aureus ATCC25923)	MIC ([4]; fraction after Second C18 RP-HPLC, S. aureus ATCC25923)	hemolysis at the lowest concentration ([5]; 3 μg/ml, 8% v/v mRBCs)	lysis (cytotoxicity) [7]	lysis (cytotoxicity) ([6]; 12.5 μg/ml, 24 h)
FKFLARTGKFL-NH2 [PN5-NH2]	64 µg/mL	32 µg/mL	32 µg/mL	16 µg/mL	–	–	–	–	–	–	–	–	–
FKFLARTGKFL [PN5]	64 µg/mL	32 µg/mL	64 µg/mL	32 µg/mL	approximately 5%	19%	–	–	–	–	–	–	–
FKFLARTGKFL [PN-#5, peptide purified from pine needles of Pinus densiflora by RP-HPLC, peak 5]	64 µg/mL	32 µg/mL	64 µg/mL	32 µg/mL	–	–	12.5 fold	234.4 fold	600 µg/mL	32 µg/mL	–	–	–
CC[C@H](C)[C@H](NC(=O)CN)C(=O)NCC(=O)N[C@@H](C)C(=O)N[C@H](C(=O)N[C@@H](CC(C)C)C(=O)N[C@@H](CCCCN)C(=O)N[C@H](C(=O)N[C@@H](CC(C)C)C(=O)N[C@H](C(=O)N[C@H](C(=O)NCC(=O)N[C@@H](CC(C)C)C(=O)N1CCC[C@H]1C(=O)N[C@@H](C)C(=O)N[C@@H](CC(C)C)C(=O)N[C@H](C(=O)N[C@@H](CO)C(=O)N[C@@H](Cc1c[nH]c2ccccc12)C(=O)N[C@H](C(=O)N[C@@H](CCCCN)C(=O)N[C@@H](CCCNC(=N)N)C(=O)N[C@@H](CCCCN)C(=O)N[C@@H](CCCNC(=N)N)C(=O)N[C@@H](CCC(N)=O)C(=O)N[C@@H](CCC(N)=O)C(N)=O)[C@@H](C)CC)[C@@H](C)CC)[C@@H](C)O)[C@@H](C)O)C(C)C)C(C)C [Melittin, reference compound]	–	4 µg/mL (≈ 1.41 µM)	2 µg/mL (≈ 0.703 µM)	–	–	–	–	–	–	–	induced hemolysis	100%	100%
